Consider seven compounds from ChEMBL document CHEMBL1149552, “Praziquantel derivatives I: Modification of the aromatic ring” (2007).

≈ marks a conversion by molar mass, not a printed value.

Holding throughout (assay type): functional
The subject of assay [1] is Schistosoma mansoni. The assay is described as follows: Antischistosomal activity against Schistosoma mansoni assessed as 100% killing of schistosomes.
Assay [2] relates to Schistosoma mansoni. The assay is described as follows: Antischistosomal activity against Schistosoma mansoni assessed as 100% killing of shcistomes relative to Praziquantel.
Assay [3] relates to Schistosoma mansoni. The assay is described as follows: Antischistosomal activity against Schistosoma mansoni assessed as complete spastic paralysis.
Assay [4] concerns Schistosoma mansoni. The assay is described as follows: Antischistosomal activity against Schistosoma mansoni assessed as shcistomes paralysis relative to Praziquantel.

`O=C(C1CCC(O)CC1)N1CC(=O)N2CCc3ccccc3C2C1` (stereo unspecified): the MLC in the assay with Schistosoma mansoni [1] was 200 µM (≈ 65.7 µg/mL). In addition, the Activity with Schistosoma mansoni [2] worked out at 1.5%; with Schistosoma mansoni [3] it was 75 µM; with Schistosoma mansoni [4], 1.3%.
For `O=C(C1CCCCC1)N1CC(=O)N2CCc3ccc([N+](=O)[O-])cc3C2C1` (stereo unspecified) the same measures were over 300 µM, under 1%, over 300 µM and under 0.3%.
In the same order, the values of `Nc1ccc2c(c1)C1CN(C(=O)C3CCCCC3)CC(=O)N1CC2` (stereo unspecified) are 28 µM (≈ 9.17 µg/mL), 10.7%, 10 µM and 10%.
For `CC(=O)Nc1ccc2c(c1)C1CN(C(=O)C3CCCCC3)CC(=O)N1CC2` (stereo unspecified) the same measures were over 300 µM, under 1%, over 300 µM and under 0.3%.
Consider `Nc1ccc(C(=O)N2CC(=O)N3CCc4ccccc4C3C2)cc1` (stereo unspecified), for which the MLC with Schistosoma mansoni [1] was 18 µM (≈ 5.78 µg/mL). Besides, the Activity in the assay on Schistosoma mansoni [2] amounted to 16.6%; with Schistosoma mansoni [3] it was 7 µM; in the assay on Schistosoma mansoni [4], 14.3%.
For `Nc1cccc(C(=O)N2CC(=O)N3CCc4ccccc4C3C2)c1` (stereo unspecified) the same measures were 12 µM (≈ 3.86 µg/mL), 25%, 7 µM and 14.3%.
In the case of `O=C(C1CCCCC1)N1CC(=O)N2CCc3ccccc3C2C1` (stereo unspecified) [PRAZIQUANTEL], the MLC in the assay with Schistosoma mansoni [1] was 3 µM (≈ 0.937 µg/mL). Moreover, in the assay on Schistosoma mansoni [3], the Activity is 1 µM.
